# Data published in US5539123A, “Low molecular weight thiocarbamates as inhibitors of elastase, uses and method of synthesis” (University of Kentucky Research Foundation, priority 1994, dated 1996).
# Where “and” joins values, the source holds several entries; their conditions need not be identical. Equal entries are not always repeated. Entries after “also recorded” stand apart in the source; their conditions may differ.
# Test system: Zymosan Induced Inflammation
# Assay: Zymosan-induced paw inflammation (arthritis) in rats, percent volume increase of the paw
# Assay type: in vivo, rat
# Conditions: for % Oedema Volume change: 3.6 × 10^-5 mg/g IP vs control
# Description: A reversible arthritic condition was induced according to known procedures for the Zymosan-induced arthritis (See J. P. Tarayre, A. Delphon, et al., Pharmacological studies in zymosan inflammation in rats and mice, I: Zymosan-induced paw edema in rat and mice, Pharmacological Research, 21, (#4) 375-384 (1989); Takuo Sato, Yoshitaka Ino, et al., Inhibitory effects of a novel synthetic protease inhibitor (FUT-175), on the paw edema in rats and Zymosan-induced compliment activation in vitro, Japan J. Pharmacol., 42,587-589 (1986); David K. Gremmell, et al., Comparative effects of drugs on four paw edema models on the rat, Agents and Actions 4, (#1) 107-116 (1979); and D. C. Keystone, et al., Zymosan-induced arthritis: A model of chronic proliferative arthritis following activation of the alternative pathway of compliment, Arthritis and Rheumatism 20 (#7) 1396-1401 (1977)).
# Each rat (250 g each) was kept in a restraining cage with light ether anesthesia until the administration of the drug. The procedure involves the intramuscular (IM) injection of 1 mg of Zymosan in 50 μL (microliters) of normal saline in the pad of a hind paw of the rat. Swelling becomes evident within 20 minutes and reaches a maximum within 1.5 hours. The swelling disappears after 24 hours. In the Figures the reversal to normal size of the paw within 24 hours is not shown. The degree of swelling is measured by a water displacement method and the percent (%) of volume increase of the paw is plotted against time (see J. P. Tarayre, A. Delphon, et al., Pharmacological studies in zymosan inflammation in rats and mice. I: Zymosan-induced paw edema in rat and mice, Pharmaco-logical Research, 21, (#4) 375-384 (1989); Takuo Sato, Yoshitaka Ino, et al., Inhibitory effects of a novel synthetic protease inhibitor (FUT-175), on the paw edema in rats and Zymosan-induced compliment activation in vitro, Japan J. Pharmacol., 42, 587-589 (1986)).
# Control was conducted by injecting I.P. 100 μl of propylene glycol (the vehicle) 15 min. prior to Zymosan administration. […] Data from tables 1 and 1a are plotted in FIGS. 1 and 1a respectively.
# In the experimental procedure the drug [PC-16, […] (FIG. 2) or 90 μg/rat (FIG. 3)] is dissolved in 100 μL of propylene glycol and is injected IP to the rats. Fifteen minutes later the Zymosan (1mg/50 μL of normal saline) solution is injected IM into the paw of the rats. The degree of swelling is subsequently measured at various time intervals for a period of 24 hours and is reported up to 4 hours.
# [1] = 3.6 × 10^-4 mg/g IP, time (min) = first number of the line
smiles,measurement,setting,value
CCCCNC(=O)Sc1nnnn1-c1ccccc1 [PC-16],% Volume Increase,"3.6 × 10^-4 mg/g IP, 205 min",3.41%
same,"% Volume Increase, Mean of 3 experiments","3.6 × 10^-4 mg/g IP, 210 min",3.48%
same,"% Volume Increase, Mean of 3 experiments","3.6 × 10^-4 mg/g IP, 220 min",3.30%
same,% Volume Increase,"3.6 × 10^-4 mg/g IP, 225 min",3.32%
same,"% Volume Increase, Mean of 3 experiments","3.6 × 10^-4 mg/g IP, 230 min",3.34%
same,"% Volume Increase, Mean of 3 experiments","3.6 × 10^-4 mg/g IP, 240 min",2.93%
same,"% Volume Increase, Experiment #3",[1],0.00% and 1.02% and 1.55% and 2.18% and 2.75% and 3.44% and 3.50%
same,"Volume, Experiment #3",[1],1.65 mL and 1.67 mL and 1.68 mL and 1.69 mL and 1.70 mL and 1.71 mL
same,% Oedema Volume change,10 min,28.0%
same,% Oedema Volume change,20 min,-42.8%
same,% Oedema Volume change,30 min,-54.1%
same,% Oedema Volume change,40 min,-58.3%
same,% Oedema Volume change,50 min,-60.8%
same,% Oedema Volume change,60 min,-65.8%
same,% Oedema Volume change,65 min,-64.8%
same,% Oedema Volume change,70 min,-65.7%
same,% Oedema Volume change,80 min,-63.9%
same,% Oedema Volume change,95 min,-66.4%
same,% Oedema Volume change,100 min,-68.2%
same,% Oedema Volume change,105 min,-68.7%
same,% Oedema Volume change,115 min,-69.9%
same,% Oedema Volume change,120 min,-69.6%
same,% Oedema Volume change,130 min,-68.8%
same,% Oedema Volume change,135 min,-65.8%
same,% Oedema Volume change,145 min,-64.6%
same,% Oedema Volume change,150 min,-67.7%
same,% Oedema Volume change,160 min,-67.4%
same,% Oedema Volume change,175 min,-66.7%
same,% Oedema Volume change,190 min,-69.2%
same,% Oedema Volume change,200 min,-67.6%
same,% Oedema Volume change,205 min,-65.6%
same,% Oedema Volume change,210 min,-63.4%
same,% Oedema Volume change,220 min,-61.2%
same,% Oedema Volume change,225 min,-61.9%
same,% Oedema Volume change,240 min,-62.7%
same,"% Volume Increase, Mean of 3 experiments","3.6 × 10^-5 mg/g IP, 0 min",0.00%
same,"% Volume Increase, Mean of 3 experiments","3.6 × 10^-5 mg/g IP, 10 min",12.2%
same,"% Volume Increase, Mean of 3 experiments","3.6 × 10^-5 mg/g IP, 20 min",16.3%
same,"% Volume Increase, Mean of 3 experiments","3.6 × 10^-5 mg/g IP, 30 min",17.3%
same,"% Volume Increase, Mean of 3 experiments","3.6 × 10^-5 mg/g IP, 40 min",18.8%
same,"% Volume Increase, Mean of 3 experiments","3.6 × 10^-5 mg/g IP, 50 min",19.1%
same,"% Volume Increase, Mean of 3 experiments","3.6 × 10^-5 mg/g IP, 60 min",19.5%
same,"% Volume Increase, Mean of 3 experiments","3.6 × 10^-5 mg/g IP, 65 min",19.8%
same,"% Volume Increase, Mean of 3 experiments","3.6 × 10^-5 mg/g IP, 70 min",20.0%
same,"% Volume Increase, Mean of 3 experiments","3.6 × 10^-5 mg/g IP, 80 min",20.5%
same,"% Volume Increase, Mean of 3 experiments","3.6 × 10^-5 mg/g IP, 95 min",19.7%
same,"% Volume Increase, Mean of 3 experiments","3.6 × 10^-5 mg/g IP, 100 min",18.6%
same,"% Volume Increase, Mean of 3 experiments","3.6 × 10^-5 mg/g IP, 105 min",18.4%
same,"% Volume Increase, Mean of 3 experiments","3.6 × 10^-5 mg/g IP, 115 min",17.9%
same,"% Volume Increase, Mean of 3 experiments","3.6 × 10^-5 mg/g IP, 120 min",17.7%
same,"% Volume Increase, Mean of 3 experiments","3.6 × 10^-5 mg/g IP, 130 min",17.7%
same,"% Volume Increase, Mean of 3 experiments","3.6 × 10^-5 mg/g IP, 135 min",17.7%
same,"% Volume Increase, Mean of 3 experiments","3.6 × 10^-5 mg/g IP, 145 min",17.7%
same,"% Volume Increase, Mean of 3 experiments","3.6 × 10^-5 mg/g IP, 150 min",15.6%
same,"% Volume Increase, Mean of 3 experiments","3.6 × 10^-5 mg/g IP, 160 min",15.2%
same,"% Volume Increase, Mean of 3 experiments","3.6 × 10^-5 mg/g IP, 175 min",14.4%
same,"% Volume Increase, Mean of 3 experiments","3.6 × 10^-5 mg/g IP, 190 min",12.6%
same,"% Volume Increase, Mean of 3 experiments","3.6 × 10^-5 mg/g IP, 200 min",13.3%
same,"% Volume Increase, Mean of 3 experiments","3.6 × 10^-5 mg/g IP, 205 min",13.5%
same,"% Volume Increase, Mean of 3 experiments","3.6 × 10^-5 mg/g IP, 210 min",13.6%
same,"% Volume Increase, Mean of 3 experiments","3.6 × 10^-5 mg/g IP, 220 min",13.6%
same,"% Volume Increase, Mean of 3 experiments","3.6 × 10^-5 mg/g IP, 225 min",12.4%
same,"% Volume Increase, Mean of 3 experiments","3.6 × 10^-5 mg/g IP, 240 min",12.1%
same,oedema reduction of rat paw,"injected prior to Zymosan, compared with control",impressive oedema reduction; also recorded: impressive reduction in edema swelling
